According to paper PMC10208956, “Microbial peptides activate tumour-infiltrating lymphocytes in glioblastoma” (Nature, 2023):

Columns and labels:
Type in all cases: cell-based, human
TCC75 = assay: Cytokine/chemokine secretion of TCC75; design: IL-1α / IL-1β / IL-2 / IL-3 / IL-4 / IL-5 / IL-6 / IL-7 / IL-10 / IL-13 / IL-15 / IL-17A / IL-33 / TNF-α: unit not given here; conditions: TCC75, sheet e
[1] = system: sorted CD4+ PE and FITC TCRVβ+ TILs; assay: Proliferation of TCRBV-sorted CD4+ TILs (without TCRBV6.1 and TCRBV6.2); conditions: sheet 6b
Source text: TILs expressing specific TCRBVs were isolated from bulk TILs using a panel of 22 fluorescently labelled TCRBV antibodies that detect 27 different TCRBVs. Twelve TCRBV antibodies were labelled with PE and 10 with FITC (Beckman Coulter). […] After another wash, cells were stained with CD4 (1:100) (APC anti-human CD4, eBioscience), CD8 (1:100) (Pacific blue anti-human CD8, BioLegend), TCRBV-PE (1:25) (Beckman Coulter) and TCRBV-FITC (1:25) (Beckman Coulter) antibodies (Supplementary Table 12) for 30 min. Finally, cells were sorted, seeded at 5 × 10^4 cells per well in T cell medium without h-IL-2 and rested for 1 day before stimulation with 2 × 10^5 cells per well of irradiated autologous PBMCs (45 Gy) and peptide (10 µM).
Two populations of CD4^+ PE-TCRVβ^+ and CD4^+ FITC-TCRVβ^+ were sorted and later mixed together. […] Specific amount of each cytokine/chemokine (pg/ml) was calculated by subtracting the cytokines in the negative control cultures (no peptide control). Source data

[2] = system: autologous glioblastoma cells; assay: T cell cytotoxicity assay of TCC88 against the autologous tumour cell line; conditions: TCC88 stimulated with 2 µM peptide for 72 h; E:T 1:1 and 5:1; 24 h; duplicates; Fig. 3f
Source text: Fig. 3 Bacteria-derived and microbiota-derived peptides can stimulate TCC88 as well as the tumour antigen. a, Peptides with the highest predicted stimulatory scores were identified by searching various databases (see Methods). Numbers of unique 10-mer peptides within each database, synthesized peptides, TCC88 stimulatory peptides and the corresponding percentage of stimulatory peptides within each database are shown. […] Cytokine and chemokine secretion of TCC88 was examined and compared upon stimulation with these three different antigens. A specific amount of each cytokine and chemokine (pg ml^−1) was calculated by subtracting the cytokines in the negative control cultures (no peptide control). f, Cytotoxicity of TCC88 against the autologous tumour cell line after stimulation with 2 µM of SIN3A* and HGM3 (data represent the mean percentage of two replicate wells). E:T, effector to target. g, TCC88 was tested with HGM3 (10 µM) or SIN3A* (10 µM) peptides or both together (each 10 µM), and ^3H-thymidine incorporation was measured after 3 days (data represent the mean SI value of three replicate wells ± s.e.m.). Also see Extended Data Figs. 3 and 4. Source data […]

TCC8F7 = assay: Proliferation of TCC8F7, 3H-thymidine (SI), 3 days; conditions: irradiated autologous PBMCs as APCs, Extended Data Fig. 5d

Substance: Ac-QPVEFNHAIHYVN-NH2 [SIN3A*]
- CCL2/MCP-1 (TCC75): 15.01
- CCL3/MIP-1α (TCC75): 1946.52
- CCL4/MIP-1β (TCC75): 6778.88
- CCL11/Eotaxin (TCC75): 4.69
- CCL19/MIP-3β (TCC75): 3.33
- CCL20/MIP-3α (TCC75): 6.39
- CD40 Ligand (TCC75): 608.52
- CXCL1/GROα (TCC75): 9.62
- CXCL2/GROβ (TCC75): 35.12
- CXCL8/IL-8 (TCC75): 0
- CXCL10/IP-10 (TCC75): 40.51
- Flt-3 Ligand (TCC75): 43.9
- Fractalkine (TCC75): 194.12
- GM-CSF (TCC75): 3130.41
- Granzyme B (TCC75): 1085.42
- IFN-α (TCC75): 4.79
- IFN-γ (TCC75): 479.21
- IL-1rα (TCC75): 0
- IL-1α (TCC75): 6.12
- IL-1β (TCC75): 7.45
- IL-2 (TCC75): 555.39
- IL-3 (TCC75): 138.37
- IL-4 (TCC75): 73.09
- IL-5 (TCC75): 13.91
- IL-6 (TCC75): 139.59
- IL-7 (TCC75): 1.11
- IL-10 (TCC75): 887.25
- IL-12p70 (TCC75): 22.92
- IL-13 (TCC75): 233.15
- IL-15 (TCC75): 1.05
- IL-17A (TCC75): 0.99
- IL-17E/IL-25 (TCC75): 3.22
- IL-33 (TCC75): 3.72
- RANTES (TCC75): 1598.25
- TNF-α (TCC75): 5169.38
- Proliferation (SI) of sorted CD4+ TILs ([1]; replicate 1): 9.2018
- Proliferation (SI) of sorted CD4+ TILs ([1]; replicate 2): 10.7366
- Proliferation (SI) of sorted CD4+ TILs ([1]; replicate 3): 6.162
- cytotoxic activity against autologous glioblastoma cells (in words) [2]: comparable
- response of TCC8F7 (in words) (TCC8F7): strongly responds
